# Read-outs that look alike come from different tables or passages of the source.
# How the values were obtained:
# Escherichia coli EC14 = test: MIC, standard agar-dilution assay (Table V); format: cell-based; conditions: Escherichia coli; E. coli EC14; agar dilution; read-out: MIC
# Summary of the method: (§1)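 Growth inhibition in liquid medium, in a routine microtiter broth-dilution series, gave the MIC against staphylococci and pasteurellae; the gram-negative enteric strain was tested by conventional agar dilution instead.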
# Escherichia coli N10 = test: MIC, standard agar-dilution assay (Table V); format: cell-based; conditions: Escherichia coli, N10
# Summary of the method: as §1
# [1] = system: Klebsiella pneumoniae KAE; test: MIC, standard agar-dilution assay (Table V); format: cell-based; conditions: Klebsiella pneumoniae
# Summary of the method: as §1
# [2] = system: Klebsiella pneumoniae X26; test: MIC, standard agar-dilution assay (Table V); format: cell-based; conditions: Klebsiella pneumoniae, X26
# Description: (§2) Especially noteworthy is the improved activity against gram-negative bacteria for several derivatives when compared to the activity of OMT. […] The MIC's in Tables V and VI were determined by standard agar-dilution assays. The MIC's in Table VII were obtained using a conventional broth-dilution microtiter test.
# Shigella sonnei N9 = test: MIC, standard agar-dilution assay (Table V); format: cell-based
# Summary of the method: as §1
# [3] = system: Staphylococcus aureus S13E; test: MIC, standard agar-dilution assay (Table V); format: cell-based; conditions: Staphylococcus aureus, S13E
# Description: as §2
# [4] = system: Staphylococcus aureus V41; test: MIC, standard agar-dilution assay (Table V); format: cell-based; conditions: Staphylococcus aureus, V41
# Description: as §2
# [5] = system: Staphylococcus aureus X1.1; test: MIC, standard agar-dilution assay (Table V); format: cell-based; conditions: Staphylococcus aureus, X1.1
# Description: as §2
# [6] = system: Staphylococcus aureus X400; test: MIC, standard agar-dilution assay (Table V); format: cell-based; conditions: Staphylococcus aureus, X400
# Description: as §2
# [7] = system: Staphylococcus epidermidis EPI1; test: MIC, standard agar-dilution assay (Table V); format: cell-based; conditions: Staphylococcus epidermidis, EPI1
# Description: as §2
# [8] = system: Staphylococcus epidermidis EPI2; test: MIC, standard agar-dilution assay (Table V); format: cell-based; conditions: Staphylococcus epidermidis, EPI2
# Description: as §2
# Streptococcus Group 9960 = test: MIC, standard agar-dilution assay (Table V); format: cell-based; conditions: GROUP9960
# Description: as §2
# [9] = system: Streptococcus Group D X66; test: MIC, standard agar-dilution assay (Table V); format: cell-based; conditions: Streptococcus Group D X66; agar dilution; read-out: MIC
# Description: as §2
# [10] = system: Haemophilus influenzae Holt; test: MIC, standard agar-dilution assay (Table V); format: cell-based; conditions: Haemophilus influenzae; H. influenzae Holt, ampicillin-sensitive strain; agar dilution; read-out: MIC
# Description: (§3) The MIC's in Tables V and VI were determined by standard agar-dilution assays. The MIC's in Table VII were obtained using a conventional broth-dilution microtiter test.
# [11] = system: Haemophilus influenzae R252; test: MIC, standard agar-dilution assay (Table V); format: cell-based; conditions: Haemophilus influenzae, R252
# Description: as §3
# [12] = system: Streptococcus pyogenes C203; test: MIC, standard agar-dilution assay (Table V); format: cell-based; conditions: Streptococcus pyogenes, C203
# Description: as §3
# [13] = system: Streptococcus pneumoniae Park I; test: microbe, parasite or virus in culture; format: cell-based; conditions: Streptococcus pneumoniae; read-out: MIC
# Description: as §2
# [14] = system: Enterobacter aerogenes C32; test: MIC, standard agar-dilution assay (Table VI); format: cell-based; conditions: Klebsiella aerogenes, C32
# Description: as §2
# Proteus rettgeri C24 = test: MIC, standard agar-dilution assay (Table VI); format: cell-based; conditions: Providencia rettgeri, P. rettgeri C24
# Description: as §2
# Proteus rettgeri PR7 = test: MIC, standard agar-dilution assay (Table VI); format: cell-based; conditions: Providencia rettgeri, PR7
# Description: as §2
# [15] = system: Salmonella heidelberg X514; test: MIC, standard agar-dilution assay (Table VI); format: cell-based; conditions: Salmonella enterica, X514
# Description: as §2
# Mycoplasma gallisepticum = test: MIC, broth-dilution microtiter test (Table VII); format: cell-based; conditions: Mycoplasmoides gallisepticum; M. gallisepticum; broth-dilution microtiter; read-out: MIC
# Description: as §2
# Mycoplasma hyorhinis = test: MIC, broth-dilution microtiter test (Table VII); format: cell-based; conditions: M. hyorhinis; broth-dilution microtiter; read-out: MIC
# Description: as §2
# Mycoplasma synoviae = test: MIC, broth-dilution microtiter test (Table VII); format: cell-based; conditions: Mycoplasmopsis synoviae; M. synoviae; broth-dilution microtiter; read-out: MIC
# Description: as §2
# [16] = system: Pasteurella hemolytica 22C; test: MIC, broth-dilution microtiter test (Table VII); format: cell-based; conditions: Pasteurella, P. hemolytica 22C, read-out: MIC
# Summary of the method: (§4)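 Each MIC derives from a dilution series, either on solid agar (Enterobacter aerogenes) or in liquid broth within microtiter plates (staphylococcal and Pasteurella strains).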
# [17] = system: Pasteurella hemolytica 23C; test: MIC, broth-dilution microtiter test (Table VII); format: cell-based; conditions: Pasteurella, P. hemolytica 23C, read-out: MIC
# Summary of the method: as §4
# [18] = system: Pasteurella hemolytica 41D; test: MIC, broth-dilution microtiter test (Table VII); format: cell-based; conditions: Pasteurella, P. hemolytica 41D, read-out: MIC
# Summary of the method: as §4
# [19] = system: Pasteurella multocida 17E; test: MIC, broth-dilution microtiter test (Table VII); format: cell-based; conditions: Pasteurella multocida; P. multocida 17E, bovine isolate; broth-dilution microtiter; read-out: MIC
# Summary of the method: (§5)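 Conventional dilution MICs: agar for Enterobacter, microtiter broth for Staphylococcus and Pasteurella.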
# [20] = system: Pasteurella multocida 22A; test: MIC, broth-dilution microtiter test (Table VII); format: cell-based; conditions: Pasteurella multocida; P. multocida 22A; broth-dilution microtiter; read-out: MIC
# Summary of the method: as §5
# [21] = system: Pasteurella multocida 40G; test: MIC, broth-dilution microtiter test (Table VII); format: cell-based; conditions: Pasteurella multocida; P. multocida 40G; broth-dilution microtiter; read-out: MIC
# Summary of the method: as §5
# [22] = system: Pasteurella multocida 60A; test: MIC, broth-dilution microtiter test (Table VII); format: cell-based; conditions: Pasteurella multocida; P. multocida 60A, avian isolate; broth-dilution microtiter; read-out: MIC
# Summary of the method: as §5
# [23] = system: Pasteurella multocida 68C; test: MIC, broth-dilution microtiter test (Table VII); format: cell-based; conditions: Pasteurella multocida; P. multocida 68C; broth-dilution microtiter; read-out: MIC
# Summary of the method: as §5
# Staphylococcus aureus = test: MIC, broth-dilution microtiter test (Table VII); format: cell-based; conditions: Staphylococcus aureus; S. aureus; broth-dilution microtiter; read-out: MIC
# Summary of the method: as §5
# Streptococcus sp. 80 = test: MIC, broth-dilution microtiter test (Table VII); format: cell-based; conditions: Streptococcus sp. 80; broth-dilution microtiter; read-out: MIC
# Description: as §2
# [24] = system: Streptococcus pyogenes C203; test: ED50 in mice experimentally infected with S. pyogenes C203 (Table VIII); format: in vivo
# Description: The C-23 modified derivatives of OMT of this invention have shown in vivo antimicrobial activity against experimental infections. When two doses of test compound were administered to mice experimentally infected with a gram-positive bacterium, S. pyogenes C203, the activity observed was measured as an ED50 value [effective dose in mg/kg to protect 50% of the test animals: see Warren Wick, et al., J. Bacteriol. 81, 233-235 (1961)].
compound,measurement,setting,value
"CCC1OC(=O)CC(O)C(C)C(OC2OC(C)C(O)C(N(C)C)C2O)C(CC=O)CC(C)C(=O)C=CC(C)=CC1CSC(C)=O (stereo not drawn) [Compound 7, 23-Deoxy-23-(acetyl)thio-OMT]",MIC,Escherichia coli EC14,64 µg/mL
same,MIC,Escherichia coli N10,64 µg/mL
same,MIC,[1],> 128 µg/mL
same,MIC,[2],4 µg/mL
same,MIC,Shigella sonnei N9,64 µg/mL
same,MIC,[3],0.125 µg/mL
same,MIC,[4],0.25 µg/mL
same,MIC,[5],0.25 µg/mL
same,MIC,[6],0.25 µg/mL
same,MIC,[7],0.125 µg/mL
same,MIC,[8],0.125 µg/mL
same,MIC,Streptococcus Group 9960,0.25 µg/mL
same,MIC,[9],0.5 µg/mL
same,MIC,[10],1 µg/mL
same,MIC,[11],2 µg/mL
same,MIC,[12],0.25 µg/mL
same,MIC,[13],0.06 µg/mL
same,MIC,[14],> 128 µg/mL
same,MIC,Proteus rettgeri C24,64 µg/mL
same,MIC,Proteus rettgeri PR7,> 128 µg/mL
same,MIC,[15],> 128 µg/mL
same,MIC,Mycoplasma gallisepticum,0.19 µg/mL
same,MIC,Mycoplasma hyorhinis,6.25 µg/mL
same,MIC,Mycoplasma synoviae,≤ 0.05 µg/mL
same,MIC,[16],6.25 µg/mL
same,MIC,[17],6.25 µg/mL
same,MIC,[18],6.25 µg/mL
same,MIC,[19],3.12 µg/mL
same,MIC,[20],1.56 µg/mL
same,MIC,[21],0.78 µg/mL
same,MIC,[22],3.12 µg/mL
same,MIC,[23],1.56 µg/mL
same,MIC,Staphylococcus aureus,0.39 µg/mL
same,MIC,Streptococcus sp. 80,0.39 µg/mL
same,ED50,"[24]; C203, po, read-out: ED50, Oral",> 100 mg/kg
same,ED50,"[24]; C203, sc, mice, subcutaneous, doses given 1 and 4 hours postinfection, read-out: ED50, Subcutaneous",21.4 mg/kg

# Source: patent US4459290A, “C-23-Modified derivatives of OMT, pharmaceutical compositions and method of use” (priority 1982, dated 1984)
